The source of these data is ChEMBL document CHEMBL1142323, “Inhibition of carbonic anhydrases with glycosyltriazole benzene sulfonamides” (J Med Chem, 2008).

Targets include Carbonic anhydrase 1 (Homo sapiens, UniProt P00915); Carbonic anhydrase 2 (Homo sapiens, UniProt P00918); Carbonic anhydrase 9 (Homo sapiens, UniProt Q16790).

As a reminder, the Ki is the dissociation constant of the complex between target and ligand, obtained from inhibition or displacement. Low readings indicate higher affinity, high ones lower affinity.

Structures are written as SMILES.

Chain of Carbonic anhydrase 1 (P00915 whole entry): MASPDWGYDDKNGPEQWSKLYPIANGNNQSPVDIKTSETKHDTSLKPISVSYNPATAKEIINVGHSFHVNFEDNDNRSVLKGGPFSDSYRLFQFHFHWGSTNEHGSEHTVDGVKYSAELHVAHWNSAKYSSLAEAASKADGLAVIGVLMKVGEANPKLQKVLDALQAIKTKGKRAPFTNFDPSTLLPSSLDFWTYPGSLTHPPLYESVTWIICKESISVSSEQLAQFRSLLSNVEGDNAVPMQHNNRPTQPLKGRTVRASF

For `CC(=O)OC[C@H]1O[C@@H](n2cc(-c3ccc(S(N)(=O)=O)cc3)nn2)[C@H](OC(C)=O)[C@@H](OC(C)=O)[C@@H]1OC(C)=O`, the Ki at Carbonic anhydrase 1 was found to be 4400 nM; at Carbonic anhydrase 2, 9.1 nM. Take `COC(=O)[C@H]1O[C@@H](n2cc(-c3ccc(S(N)(=O)=O)cc3)nn2)[C@H](O)[C@@H](O)[C@@H]1O`: at Carbonic anhydrase 9, the affinity, expressed as Ki, was 8.4 nM. Take `NS(=O)(=O)c1ccc(-c2cn([C@@H]3O[C@H](CO)[C@@H](O)[C@H](O)[C@H]3O)nn2)cc1`: the figures for the Ki on Carbonic anhydrase 1, at Carbonic anhydrase 9 and at Carbonic anhydrase 2 were 9.4 nM, 89 nM and 380 nM, respectively. Take `CC(=O)N[C@@H]1[C@@H](OC(C)=O)[C@H](OC(C)=O)[C@@H](COC(C)=O)O[C@H]1n1cc(-c2ccc(S(N)(=O)=O)cc2)nn1`: the Ki on Carbonic anhydrase 9 was found to be 101 nM. For `NS(=O)(=O)c1ccc(-c2cn([C@@H]3O[C@H](CO)[C@H](O)[C@H](O)[C@H]3O)nn2)cc1`, the Ki on Carbonic anhydrase 1 stood at 9.3 nM; at Carbonic anhydrase 9 it was 120 nM; at Carbonic anhydrase 2, 8.8 nM. As for `CC(=O)OC[C@H]1O[C@@H](n2cc(-c3ccc(S(N)(=O)=O)cc3)nn2)[C@H](OC(C)=O)[C@@H](OC(C)=O)[C@@H]1O[C@H]1O[C@H](COC(C)=O)[C@@H](OC(C)=O)[C@H](OC(C)=O)[C@H]1OC(C)=O`, on Carbonic anhydrase 9, the affinity corresponds to a Ki of 120 nM. Take `NS(=O)(=O)c1ccc(-c2cn([C@@H]3O[C@H](CO)[C@@H](O[C@H]4O[C@H](CO)[C@@H](O)[C@H](O)[C@H]4O)[C@H](O)[C@H]3O)nn2)cc1`: affinity on Carbonic anhydrase 9 was put at a Ki of 130 nM. At Carbonic anhydrase 9, `NS(=O)(=O)c1ccc(-c2cn([C@@H]3O[C@H](CO)[C@@H](O)[C@H]3O)nn2)cc1` had a Ki of 121 nM.

For the molecule `COC(=O)[C@H]1O[C@@H](n2cc(-c3ccc(S(N)(=O)=O)cc3)nn2)[C@H](OC(C)=O)[C@@H](OC(C)=O)[C@@H]1OC(C)=O`, the Ki on Carbonic anhydrase 9 was 9.9 nM. With `CC(=O)OC[C@H]1O[C@@H](n2cc(-c3ccc(S(N)(=O)=O)cc3)nn2)[C@H](OC(C)=O)[C@@H](OC(C)=O)[C@H]1OC(C)=O`, the Ki at Carbonic anhydrase 1 amounted to 4300 nM; at Carbonic anhydrase 9 it was 110 nM; at Carbonic anhydrase 2 it was 8.7 nM. The corresponding values for `NS(=O)(=O)c1ccc(-c2cn(C3O[C@H](CO)[C@@H](O)[C@H](O)[C@@H]3O)nn2)cc1` (single isomer, unassigned) are 2.8 nM, 5.4 nM and 7.6 nM. `CC(=O)O[C@H]1[C@H](OC(C)=O)C(n2cc(-c3ccc(S(N)(=O)=O)cc3)nn2)OC[C@H]1OC(C)=O` (single isomer, unassigned) had a Ki at Carbonic anhydrase 9 of 134 nM.

`CC(=O)OC[C@H]1OC(n2cc(-c3ccc(S(N)(=O)=O)cc3)nn2)[C@@H](OC(C)=O)[C@@H](OC(C)=O)[C@@H]1OC(C)=O` (single isomer, unassigned): the results for the Ki at Carbonic anhydrase 1, at Carbonic anhydrase 9 and on Carbonic anhydrase 2 were 1.6 nM, 5 nM and 2.1 nM, respectively.
